Reference: patent US11414429B2, “Compound or pharmaceutically acceptable salt thereof” (RIKEN, priority 2016, dated 2022)
Like-named read-outs stand apart in the source and are kept apart here.

Experiments:
tankyrase 1 (TNKS 1) = target: T1, tankyrase 1 (TNKS 1) (Homo sapiens, UniProt O95271); experiment: Tankyrase inhibitory activity test (ELISA, self-polyADP ribosylation), tankyrase 1; assay type: biochemical
T1 construct: 1,024-1,327aa; made in house; host or cells: cell-free protein synthesis system
Procedure, shortened: (§1)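 IC50 was fitted to residual self-polyADP-ribosylation activity, detected by HRP-streptavidin chemiluminescence. Plate-bound Flag fusions (TNKS1 1,024-1,327aa SAM+PARP; TNKS2 613-1,116aa ANK5+SAM+PARP, cell-free synthesized) saw compound for 10 min at room temperature in 50 mM Tris-HCl pH 8.0, 4 mM MgCl2, 0.2 mM DTT. Reaction with 225 μM NAD/25 μM 6-biotin-17-NAD solution ran 45 min at 30 °C.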

tankyrase 2 (TNKS 2) = target: T2, tankyrase 2 (TNKS 2) (Homo sapiens, UniProt Q9H2K2); experiment: Tankyrase inhibitory activity test (ELISA, self-polyADP ribosylation), tankyrase 2; assay type: biochemical
T2 construct: 613-1, 116aa; made in house; host or cells: cell-free protein synthesis system
Procedure, shortened: as §1

[1] = test system: human colorectal cancer cell line, COLO-320DM; experiment: Cell proliferation inhibitory activity test (Celltiter-Glo Luminescent Cell Viability Assay); assay type: cell-based; settings: COLO-320DM cells, 96 hours
Procedure, shortened: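 GI50 is taken as the concentration halving cell growth versus 1% DMSO control, measured by ATP luminescence. Compound exposure lasted 96 h at 37° C. under 5% CO2, after overnight seeding in RPMI-1640 with 10% FBS and 2 mM glutamine.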

[2] = tankyrase 1, ELISA, self-polyADP ribosylation, read-out: TNKS1 inhibitory activity (IC50 class)
[3] = tankyrase 2, ELISA, self-polyADP ribosylation, read-out: TNKS2 inhibitory activity (IC50 class)
[4] = read-out: COLO-320 DM cell proliferation inhibitory activity (GI50 class)
[5] = ELISA, self-polyADP ribosylation, class symbols, read-out: TNKS1 (inhibitory activity against tankyrase 1, IC50 value)
[6] = ELISA, self-polyADP ribosylation, class symbols, read-out: TNKS2 (inhibitory activity against tankyrase 2, IC50 value)
[7] = class symbols, read-out: COLO-320 DM (cell proliferation inhibitory activity, GI50 value)

T1 sequence (O95271 1024-1327): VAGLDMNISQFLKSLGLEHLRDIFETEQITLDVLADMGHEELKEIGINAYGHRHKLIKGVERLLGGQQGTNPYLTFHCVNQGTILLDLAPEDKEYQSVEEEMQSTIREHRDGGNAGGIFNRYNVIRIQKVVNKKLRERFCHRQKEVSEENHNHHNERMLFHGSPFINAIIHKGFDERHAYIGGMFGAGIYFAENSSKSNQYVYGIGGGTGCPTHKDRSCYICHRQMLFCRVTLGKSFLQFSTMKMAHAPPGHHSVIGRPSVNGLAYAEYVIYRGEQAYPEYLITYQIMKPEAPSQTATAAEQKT
T2 sequence (Q9H2K2 613-1166): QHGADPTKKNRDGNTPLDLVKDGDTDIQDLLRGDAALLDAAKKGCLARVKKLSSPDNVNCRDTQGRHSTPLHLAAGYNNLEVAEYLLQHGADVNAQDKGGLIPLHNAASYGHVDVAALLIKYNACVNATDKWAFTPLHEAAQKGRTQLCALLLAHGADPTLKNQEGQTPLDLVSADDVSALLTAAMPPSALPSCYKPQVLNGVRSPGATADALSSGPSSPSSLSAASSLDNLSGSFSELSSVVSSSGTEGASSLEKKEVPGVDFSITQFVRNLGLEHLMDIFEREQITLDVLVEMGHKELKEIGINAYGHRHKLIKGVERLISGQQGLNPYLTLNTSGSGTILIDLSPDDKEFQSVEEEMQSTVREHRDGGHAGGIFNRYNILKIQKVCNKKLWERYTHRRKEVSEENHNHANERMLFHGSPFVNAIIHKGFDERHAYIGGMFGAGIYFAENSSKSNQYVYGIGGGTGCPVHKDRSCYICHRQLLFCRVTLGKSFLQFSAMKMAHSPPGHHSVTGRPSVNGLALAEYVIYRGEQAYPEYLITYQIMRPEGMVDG

Row | IC50 (tankyrase 1 (TNKS 1); [2]) [nM] | IC50 (tankyrase 2 (TNKS 2); [3]) [nM] | GI50 [1, 4] [nM] | IC50 (tankyrase 1 (TNKS 1); [5]) [nM] | IC50 (tankyrase 2 (TNKS 2); [6]) [nM] | GI50 [1, 7] [nM] | IC50 (tankyrase 1 (TNKS 1)) [nM] | IC50 (tankyrase 2 (TNKS 2)) [nM] | SMILES
1 | < 20 | < 20 | 100 to 600 | – | – | – | – | – | COCCOc1cc(F)c2c(c1)N(C)C(=O)C21CCN(c2nc3c(c(=O)[nH]2)CCCN3C)CC1 [Example 366, 4-fluoro-6-(2-methoxy)-1-methyl-1′-(8-methyl-4-oxo-3,4,5,6,7,8-hexahydropy-rido[2,3-d]pyrimidin-2-yl)spiro [indoline-3,4′-piperidin]-2-one]
2 | – | – | – | < 20 | < 20 | 100 to 600 | – | – | CN1CCCc2c1nc(N1CCC3(CC1)OC(=O)c1cc(N4CCN(CC(C)(C)O)CC4)cc(F)c13)[nH]c2=O [Example 439, 4-fluoro-1′-(4-hydroxy-8-methyl-6,7-dihydro-5H-pyrido[2,3-d]pyrimidin-2-yl)-6-[4-(2-hydroxy-2-methyl-propyl)piperazin-1-yl] spiro[2,3-benzofuran-3,4′-piperidine]-1-one]
3 | < 20 | < 20 | < 100 | – | – | – | – | – | COc1cc(F)c2c(c1)N(CCO)C(=O)C21CCN(c2nc3c(c(=O)[nH]2)CCCN3C)CC1 [Example 373, 4-fluoro-1-(2-hydroxy-ethyl)-6-methoxy-1′-(8-methyl-4-oxo-3,4,5,6,7,8-hexahydropyrido [2,3-d]pyrimidin-2-yl) spiro[indoline-3,4′-piperidin]-2-one]
4 | < 20 | < 20 | < 100 | – | – | – | – | – | COc1cc(F)c2c(c1)N(CC#N)C(=O)C21CCN(c2nc3c(c(=O)[nH]2)CCCN3C)CC1 [Example 379, 2-[4-fluoro-6-methoxy-1′-(8-methyl-4-oxo-3,4,5,6,7,8-hexahydropyrido [2,3-d]pyrimidin-2-yl)-2-oxospiro [indoline-3,4′-piperidin]-1-yl] acetonitrile]
5 | < 20 | < 20 | 100 to 600 | – | – | – | – | – | COc1cc(F)c2c(c1)N(C)C(=O)C21CCN(c2nc3c(c(=O)[nH]2)CCCN3C)CC1 [Example 372, 4-fluoro-6-methoxy-1-methyl-1′-(8-methyl-4-oxo-3,4,5,6,7,8-hexahydropyrido [2,3-d]pyrimidin-2-yl) spiro[indoline-3,4'-piperidin]-2-one]
6 | – | – | – | – | – | 600 to 1000 | 20 to 200 | 20 to 200 | CN1CCCc2c1nc(N1CCC3(CC1)C(=O)N(C)c1cc(OCP(=O)(O)O)cc(F)c13)[nH]c2=O [Example 442, ({[4-fluoro-1-methyl-1′-(8-methyl-4-oxo-3,4,5,6,7,8-hexahydropyrido[2,3-d]pyrimidin-2-yl)-2-oxospiro[indoline-3,4′-piperidine]-6-yl]oxy}methyl) phosphonic Acid]
7 | < 20 | < 20 | 100 to 600 | – | – | – | – | – | CN1CCCc2c1nc(N1CCC3(CC1)C(=O)N(CCO)c1cc(OCCO)cc(F)c13)[nH]c2=O [Example 381, 4-fluoro-6-(2-hydroxy-thoxy)-1-(2-hydroxyethyl)-1′-(8-methyl-4-oxo-3,4,5,6,7,8-hexahydropyrido [2,3-d]pyrimidin-2-yl)spiro [indoline-3,4′-piperidin]-2-one]
8 | < 20 | < 20 | < 100 | – | – | – | – | – | CN1CCCc2c1nc(N1CCC3(CC1)C(=O)N(CC#N)c1cc(F)cc(F)c13)[nH]c2=O [Example 374, 2-(4,6-difluoro-1′-(8-methyl-4-oxo-3,4,5,6,7,8-hexahydropyrido [2,3-d]pyrimidin-2-yl)-2-oxospiro[indoline-3,4′-piperidin]-1-yl)acetonitrile]
9 | – | – | – | < 20 | < 20 | 600 to 1000 | – | – | O=C1OC2(CCN(c3nc4c(c(=O)[nH]3)CCCN4)CC2)c2c(F)cc(N3CCOCC3)cc21 [Example 471, 7-fluoro-1′-(4-hydroxy-6,7-dihydro-5H-pyrido[2,3-d]pyrimidin-2-yl)-6-morpholino-4-ylspiro[2-benzofuran-3,4′-piperidin]-1-one]
10 | < 20 | < 20 | 600 to 1000 | – | – | – | – | – | CN1CCCc2c1nc(N1CCC3(CC1)C(=O)N(C)c1cc(OCCCN4CCOCC4)cc(F)c13)[nH]c2=O [Example 365, 4-fluoro-1-methyl-1′-(8-methyl-4-oxo-3,4,5,6,7,8-hexahydro-pyrido[2,3-d]pyrimidin-2-yl)-6-(3-morpholino-propoxy) spiro[indoline-3,4′-piperidin]-2-one]
11 | – | – | – | < 20 | < 20 | 600 to 1000 | – | – | CN1CCCc2c(O)nc(N3CCC4(CC3)OC(=O)c3cc(OCCN5CCCC5)cc(F)c34)nc21 [Example 395, 4-fluoro-1′-(4-hydroxy-8-methyl-6,7-dihydro-5H-pyrido[2,3-d]pyrimidin-2-yl)-6-(2-pyrrolidin-1-ylethoxy)spiro[2-benzofuran-3,4′-piperidine]-1-one]
12 | < 20 | < 20 | < 100 | – | – | – | – | – | CN1CCCc2c1nc(N1CCC3(CC1)C(=O)N(C)c1cc(OC4CCOCC4)cc(F)c13)[nH]c2=O [Example 389, 4-fluoro-1-methyl-1′-(8-methyl-4-oxo-3,4,5,6,7,8-hexahydropyrido [2,3-d]pyrimidin-2-yl)-6-[(tetrahydro-2H-pyran-4-yl)oxy]spiro [indoline-3,4′-piperidin]-2-one]

Continued, molecule first:

Row | SMILES | IC50 (tankyrase 1 (TNKS 1); [2]) [nM] | IC50 (tankyrase 2 (TNKS 2); [3]) [nM] | GI50 [1, 4] [nM] | IC50 (tankyrase 1 (TNKS 1); [5]) [nM] | IC50 (tankyrase 2 (TNKS 2); [6]) [nM] | GI50 [1, 7] [nM] | IC50 (tankyrase 1 (TNKS 1)) [nM] | IC50 (tankyrase 2 (TNKS 2)) [nM]
13 | CN1CC2(CCN(c3nc4c(c(=O)[nH]3)CCCN4C)CC2)c2c(F)cc(F)cc21 [Example 337, 2-(4,6-difluoro-1-methylspiro [indoline-3,4′-piperidin]-1′-yl)-8-methyl-5,6,7,8-tetrahy-dropyrido [2,3-d] pyrimidin-4(3H)-one] | < 20 | < 20 | 100 to 600 | – | – | – | – | –
14 | CN1CCCc2c1nc(N1CCC3(CC1)C(=O)N(C)c1cc(-c4nc(C(=O)O)co4)cc(Cl)c13)[nH]c2=O [Example 331, 2-{4-chloro-1-methyl-1′-(8-methyl-4-oxo-3,4,5,6,7,8-hexahydro-pyrido[2,3-d]pyrimidin-2-yl)-2-oxospiro [indoline-3,4′-piperidin]-6-yl]oxazole-4-carboxylic acid] | < 20 | < 20 | 600 to 1000 | – | – | – | – | –
15 | CN1CCCc2c1nc(N1CCC3(CC1)C(=O)N(C)c1c(C(N)=O)ccc(Cl)c13)[nH]c2=O [Example 330, 4-chloro-1-methyl-1′-(8-methyl-4-oxo-3,4,5,6,7,8-hexahydro-pyrido[2,3-d]-pyrimidin-2-yl)-2-oxospiro-[indoline-3,4′-piperidine]-7-carboxamide] | < 20 | < 20 | 600 to 1000 | – | – | – | – | –
16 | O=c1[nH]c(N2CCC3(CC2)CN(Cc2cccnc2)c2cccc(Cl)c23)nc2c1CCCC2 [Example 221, 2-[4-chloro-1-(pyridin-3-yl)methylspiro [indoline-3,4′-piperidin] 1′-yl)-5,6,7,8-tetrahydro quinazolin-4(3H)-one] | < 20 | < 20 | 100 to 600 | – | – | – | – | –
17 | CN1C(=O)C2(CCN(c3nc4c(c(=O)[nH]3)CCCC4)CC2)c2c(Cl)cc(-c3nc(C(=O)N4CCOCC4)co3)cc21 [Example 323, 4-chloro-1-methyl-6-[4-(morpholine-4-carbonyl)oxazole-2-yl]-1′-(4-oxo-3,4,5,6,7,8-hexa-hydroquinazoline-2-yl)spiro[indoline-3,4′-piperidin]-2-one] | < 20 | < 20 | 600 to 1000 | – | – | – | – | –
18 | CN(C)CCOc1cc(F)c2c(c1)N(C)C(=O)C21CCN(c2nc3c(c(=O)[nH]2)CCCN3C)CC1 [Example 357, 6-[2-(dimethylamino)ethoxy]-4-fluoro-1-methyl-1′-(8-methyl-4-oxo-3,4,5,6,7,8-hexa-hydropyrido [2,3-d]pyrimidin-2-yl) spiro[indoline-3,4′-piperidin]-2-one] | < 20 | < 20 | 600 to 1000 | – | – | – | – | –
19 | CN1CCCc2c1nc(N1CCC3(CC1)C(=O)N(C)c1c(OCc4nnn[nH]4)ccc(Cl)c13)[nH]c2=O [Example 415, 4-chloro-1′-(4-hydroxy-8-methyl-6,7-dihydro-5H-pyrido[2,3-b]py-rimidin-2-yl)-1-meth-yl-7-(2H-tetrazol-5-yl-methoxy)spiro[indole-3,4′-piperidin]-2-one] | – | – | – | < 20 | < 20 | 600 to 1000 | – | –
20 | CN1CCCc2c1nc(N1CCC3(CC1)C(=O)N(C)c1cc(F)cc(F)c13)[nH]c2=O [Example 339, 4,6-difluoro-1-methyl-1′-(8-methyl-4-oxo-3,4,5,6,7,8-hexahydro-pyrido[2,3-d]pyrimidin-2-yl)spiro [indoline-3,4′-piperidin]-2-one] | < 20 | < 20 | 100 to 600 | – | – | – | – | –
21 | CN1CCCc2c1nc(N1CCC3(CC1)C(=O)N(C)c1cc(OCCN4CCOCC4)cc(F)c13)[nH]c2=O [Example 360, 4-fluoro-1-methyl-1′-(8-methyl-4-oxo-3,4,5,6,7,8-hexahydropy-rido[2,3-d]pyrimidin-2-yl)-6-(2-morpho-linoethoxy) spiro [indoline-3,4′-piperidin]-2-one] | < 20 | < 20 | 100 to 600 | – | – | – | – | –
